Test results as given in patent publication US4521537A, “Spiro[2H-1,4-benzodioxepin-3(5H)4'-piperidine and -3'-pyrrolidine] compounds and their use as antihypertensive agents” (Hoechst-Roussel Pharmaceuticals Incorporated, priority 1984, dated 1985).
Where a name gives a salt, the structure may show the parent alone. Read-outs that look alike come from different tables or passages of the source.

Assays:
[1] = test system: spontaneous hypertensive rat; test: antihypertensive activity, spontaneous hypertensive rat (SHR) test, indirect tail cuff method; format: in vivo
Method: Compounds of this invention are useful as antihypertensive agents due to their ability to depress blood pressure in mammals. Antihypertensive activity is measured in the spontaneous hypertensive rat by the indirect tail cuff method described by A. Schwartz, Ed., Methods in Pharmacology, Vol. page 135, Appleton Century Crafts, New York (1971). […] The drop in blood pressure is measured on the third day following administration. The antihypertensive activity is expressed as mm Hg decrease in mean arterial blood pressure.

[2] = test system: mice; test: phenylquinone-induced writhing test in mice (PQW), analgesia; format: in vivo, male, CD-1 mice; settings: Mus musculus; for change in vivo at 5 mg/kg: 5 mg/kg SC; for ED50: read-out: ED50 (PQW)
Method: Compounds of this invention produce analgesia when administered to mammals. A phenylquinone-induced writhing test in mice (PQW) was used as an assay to detect analgesia. The procedure employed was a modification of Siegmund, E., Cadmus, R. and Lu, G: Proc. Soc. Exptl. Bio. Med., 95: 729 (1957). 12.5 mg of phenyl-p-benzoquinone were dissolved in 5 ml of 95% ethanol and q.s. to 100 ml with distilled water and administered to mice (10 ml/kg, i.p.). This produces a characteristic "writhe" which is defined as an inward rotation of one or more feet with twisting and turning of the trunk, drawing in of the abdominal wall, lordosis and arching of the back.
A total of 28 male, CD-1 mice (18 to 30 grams) were employed for a time response. Animals recived food and water ad libitum. Drugs to be tested were prepared with distilled water and, if insoluble, one drop of a suitable surfactant was added.
Twenty animals (5/group) were administered the drug 15, 30, 45 and 60 minutes prior to phenylquinone injections. Control animals (2/group) received an equal amount of vehicle. After the administration of phenylquinone the mice were placed separately into one-liter beakers and 5 minutes were allowed to lapse. The mice were then observed for a period of 10 minutes and the number of writhes were recorded for each animal. The formula for computing percent inhibition is: [formula]
The time period with the greatest percent of inhibition is considered the peak time.
A dose range is run in the same fashion as a time response except 10 animals per group were tested at the peak time of drug activity. Fifty animals, 4 drug groups, and a vehicle control were employed. Animals were dosed and tested in a randomized manner. An estimated ED50 was calculated by a computer linear regression analysis.

[3] = sc, read-out: PQW % (percent inhibition of writhing)
[4] = Table II, 20 mg/kg SC, read-out: PQW % (percent inhibition of writhing)
[5] = Table III, 20 mg/kg SC, read-out: PQW % (percent inhibition of writhing)
[6] = Table II, read-out: PQW % (percent inhibition of writhing)

SMILES | SHR mm Hg (decrease in mean arterial blood pressure) ([1]; Table III, 50 mg/kg PO) [mm Hg] | SHR mm Hg (decrease in mean arterial blood pressure) ([1]; Table II, 50 mg/kg PO) [mm Hg] | change in vivo at 20 mg/kg [2, 5] [%] | other results
CC1Oc2ccc(Cl)cc2COC12CCN(CCOC(c1ccc(F)cc1)c1ccc(F)cc1)CC2 (stereo not shown) [Example 85, 7-Chloro-1'-[2-(bis(4-fluorophenyl)methoxy)ethyl]-2-methylspiro[2H-1,4-benzodioxepin-3(5H)4'-piperidine]hydrochloride] | -46 | – | – | change in vivo at 20 mg/kg [2, 3]: -44%
CC1Oc2ccccc2COC12CCN(CC#N)CC2 (stereo not shown) [Example 45, 1'-(Cyanomethyl)-2-methylspiro[2H-1,4-benzodioxepin-3(5H)-4'-piperidine]] | – | -29 | – | change in vivo at 20 mg/kg [2, 4]: -15%
CC1Oc2ccc(F)cc2COC12CCN(CCCC(c1cccc(F)c1)c1cccc(F)c1)CC2 (stereo not shown) [Example 76, 1'-[4,4-Bis(3-fluorophenyl)butyl]-7-fluoro-2-methylspiro[2H-1,4-benzodioxepin-3(5H)4'-piperidine]hydrochloride] | – | – | -38 | SHR mm Hg (decrease in mean arterial blood pressure) ([1]; Table III, 0.3 mg/kg PO): -31 mm Hg
CC1Oc2ccccc2COC12CCN(CCCc1noc3cc(F)ccc13)CC2 (stereo not shown) [Example 52, 1'-[3-(6-Fluoro-1,2-benzisoxazol-3-yl)propyl]-2-methylspiro[2H-1,4-benzodioxepin-3(5H)4'-piperidine]maleate] | – | -67 | – | change in vivo at 5 mg/kg [2, 6]: -82%
CC(=O)N1CCC2(CC1)OCc1cc([N+](=O)[O-])ccc1OC2C (stereo not shown) [Example 80, 1'-Acetyl-2-methyl-7-nitrospiro[2H-1,4-benzodioxepin-3(5H)4'-piperidine]] | -19 | – | -22 | –
CC1Oc2ccc(Cl)cc2COC12CCN(CCCC(c1cccc(F)c1)c1cccc(F)c1)CC2 (stereo not shown) [Example 79, 1'-[4,4-Bis(3-fluorophenyl)butyl]-7-chloro-2-methylspiro[2H-1,4-benzodioxepin-3(5H)4'-piperidine]hydrochloride] | – | – | -91 | SHR mm Hg (decrease in mean arterial blood pressure) ([1]; Table III, 0.3 mg/kg PO): -27 mm Hg
CC1Oc2ccccc2COC12CCN(CCCN)CC2 (stereo not shown) [Example 55, 2-Methyl-1'-(3-aminopropyl)spiro[2H-1,4-benzodioxepin-3(5H)4'-piperidine]dioxalate] | – | -28 | – | change in vivo at 20 mg/kg [2, 4]: -28%
CNC(=O)N1CCC2(CC1)OCc1ccccc1OC2C (stereo not shown) [Example 70, N,2-Dimethylspiro[2H-1,4-benzodioxepin-3(5H)4'-piperidine]-1'-carboxamide] | -39 | – | -35 | –
CC1Oc2ccccc2COC12CCN(CCO)CC2 (stereo not shown) [Example 48, 1'-(2-Hydroxyethyl)-2-methylspiro[2H-1,4-benzodioxepin-3(5H)4'-piperidine]] | – | -23 | – | change in vivo at 20 mg/kg [2, 4]: -39%
CC1Oc2ccc(Cl)cc2COC12CCN(CCCCC(c1ccc(F)cc1)c1ccc(F)cc1)CC2 (stereo not shown) [Example 86, 7-Chloro-2-methyl-1'-[5,5-bis(4-fluorophenyl)pentyl]-spiro[2H-1,4-benzodioxepin-3(5H)4'-piperidine]hydrochloride] | -42 | – | -25 | –
CC1Oc2ccccc2COC12CCN(CCN1CCOCC1)CC2 (stereo not shown) [Example 59, 1'-[2-(1-Morpholino)ethyl]-2-methylspiro[2H-1,4-benzodioxepin-3(5H)4'-piperidine]dihydrochloride] | – | -18 | – | change in vivo at 20 mg/kg [2, 4]: -52%
CCOC(=N)N1CCC2(CC1)OCc1ccccc1OC2C (stereo not shown) [Example 72, 2-Methylspiro[2H-1,4-benzodioxepin-3(5H)4'-piperidine]-1'-carboximidic acid, ethyl ester hydrochloride] | -20 | – | -51 | –
CCNC(=O)N1CCC2(CC1)OCc1ccccc1OC2C (stereo not shown) [Example 71, N-Ethyl-2-methylspiro[2H-1,4-benzodioxepin-3(5H)4'-piperidine]-1'-carboxamide] | -67 | – | -46 | –
CC1Oc2ccc(Cl)cc2COC12CCN(CC(O)COc1ccccc1)CC2 (stereo not shown) [Example 91, 7-Chloro-2-methyl-1'-(2-hydroxy-3-phenoxypropyl)spiro[2H-1,4-benzodioxepin-3(5H)4'-piperidine]hydrochloride] | -29 | – | -67 | –
CC1Oc2ccccc2COC12CCN(CCNC(=N)N)CC2 (stereo not shown) [Example 50, [2-(2-Methylspiro[2H-1,4-benzodioxepin-3(5H)4'-piperidin]-1'-yl)ethyl]-guanidine hemisulfate hemihydrate] | – | – | – | change in vivo at 20 mg/kg [2, 4]: -8%
CC1Oc2ccccc2COC12CCN(CCc1ccc(N)cc1)CC2 (stereo not shown) [Example 57, 1'-[2-(4-Aminophenyl)ethyl]-2-methylspiro[2H-1,4-benzodioxepin-3(5H)4'-piperidine]maleate hydrate] | – | -12 | – | change in vivo at 20 mg/kg [2, 4]: -99%
COc1ccc(OCC(O)CN2CCC3(CC2)OCc2cc(Cl)ccc2OC3C)cc1 (stereo not shown) [Example 92, 7-Chloro-2-methyl-1'-[2-hydroxy-3-(4-methoxyphenoxy)propyl]spiro[2H-1,4-benzodioxepin-3(5H)4'-piperidine]hydrochloride] | -66 | – | -47 | –
CC1Oc2ccccc2COC12CCN(CC1CC1)CC2 (stereo not shown) [Example 51, 1'-Cyclopropylmethyl-2-methylspiro[2H-1,4-benzodioxepin-3(5H)4'-piperidine]oxalate] | – | – | – | change in vivo at 10 mg/kg ([2]; Table II, 10 mg/kg SC, read-out: PQW % (percent inhibition of writhing)): -61%
CC1Oc2ccc(F)cc2COC12CCN(CCCCc1ccc(F)cc1)CC2 (stereo not shown) [Example 77, 1'-[4-(4-Fluorophenyl)butyl]-7-fluoro-2-methylspiro[2H-1,4-benzodioxepin-3(5H)4'-piperidine]hydrochloride] | -40 | – | – | change in vivo at 5 mg/kg ([2]; Table III, read-out: PQW % (percent inhibition of writhing)): -66%; ED50 ([2]; Table III, SC, printed in PQW % column): 4.3 mg/kg
CC1Oc2ccccc2COC12CCN(CC(O)COc1ccc(F)cc1)CC2 (stereo not shown) [Example 90, 2-Methyl-1'-[2-hydroxy-3-(4-fluorophenoxy)propyl]spiro[2H-1,4-benzodioxepin-3(5H)4'-piperidine]hydrochloride] | – | – | -99 | –
CC1Oc2ccccc2COC12CCN(CCC(C#N)(c1ccccc1)c1ccccc1)CC2 (stereo not shown) [Example 61, 2-Methyl-1'-[3-cyano-3,3-diphenylpropyl]spiro[2H-1,4-benzodioxepin-3(5H)4'-piperidine]hydrochloride] | – | – | – | change in vivo at 20 mg/kg [2, 3]: -25%
COC(=N)N1CCC2(CC1)OCc1ccccc1OC2C (stereo not shown) [Example 69, 2-Methylspiro[2H-1,4-benzodioxepin-3(5H)4'-piperidine]-1'-carboximidic acid, methyl ester hydrochloride] | – | – | -74 | –
CC1Oc2ccccc2COC12CCN(CCc1ccccc1)CC2 (stereo not shown) [Example 46, 2-Methyl-1'-(2-phenylethyl)-spiro[2H-1,4-benzodioxepin-3(5H)4'-piperidine]hydrochloride] | – | -12 | – | change in vivo at 5 mg/kg [2, 6]: -87%
CC(=O)N1CCC2(CC1)OCc1ccccc1OC2C (stereo not shown) [Example 73, 1'-Acetyl-2-methylspiro[2H-1,4-benzodioxepin-3(5H)4'-piperidine]] | – | – | -27 | –
CC1Oc2ccccc2COC12CCN(CCC#N)CC2 (stereo not shown) [Example 67, 1'-(2-Cyanoethyl)-2-methylspiro[2H-1,4-benzodioxepin-3(5H)4'-piperidine]oxalate] | – | -30 | – | change in vivo at 20 mg/kg [2, 4]: -40%
CC1Oc2ccccc2COC12CCN(CCc1ccc([N+](=O)[O-])cc1)CC2 (stereo not shown) [Example 56, 1'-[2-(4-Nitrophenyl)ethyl]2-methylspiro[2H-1,4-benzodioxepin-3(5H)4'piperidine]oxalate] | – | -17 | – | change in vivo at 20 mg/kg [2, 4]: -30%
CCC(=O)O[C@](Cc1ccccc1)(c1ccccc1)[C@H](C)CN(C)C [Propoxyphene, reference compound] | – | – | – | ED50 ([2]; sc): 3.9 mg/kg
COc1ccc2c(c1)c(CC(=O)O)c(C)n2C(=O)c1ccc(Cl)cc1 [Indomethacin, reference compound] | – | – | – | ED50 ([2]; po): 0.7 mg/kg
